The values that follow are results of earlier work, collected in US20060069075A1, “Methods for treating dry eye” (priority 2001, published 2006).

The subject of this data set is human conjunctival epithelial cells. The following applies: background statement, no data given.

As to `CCCCC[C@H](O)/C=C/C=C\C/C=C\C/C=C\CCCC(=O)O` [15-HETE], the “secretion of mucin-1 (MUC-1)” value is “increase the secretion of mucin-1 (MUC-1)”.
